One assay relates to 3 PPAR isoforms. The assay can be described thus: PPAR agonist properties of compound 1, different method and equipment (not described). As for the experimental part: The measured activities differ depending on the compound tested and the compounds according to the invention are also observed to have varying selectivity with respect to the various isoforms of hPPAR: • Certain compounds according to the invention are selective for a subtype of PPAR. […] Compound 1 of the invention was also tested for its PPAR agonist properties. […] As the measurements obtained for compound 1 were carried out according to a different method and with different equipment, relative to the other 53 compounds in the examples, the corresponding results are not presented in Table 8-1 above.

In a further assay the target is T1, hPPARδ (Homo sapiens, UniProt Q03181).
T1 construct: corresponding to the DEF domains (structural elements of the promoter of the PPARs: D=hinge, EF=ligand fixation domain and AF2 fixation site); expressed in transfected cells; host or cells: COS-7 (monkey kidney fibroblasts)
T1 sequence (Q03181 211-439 limits assumed): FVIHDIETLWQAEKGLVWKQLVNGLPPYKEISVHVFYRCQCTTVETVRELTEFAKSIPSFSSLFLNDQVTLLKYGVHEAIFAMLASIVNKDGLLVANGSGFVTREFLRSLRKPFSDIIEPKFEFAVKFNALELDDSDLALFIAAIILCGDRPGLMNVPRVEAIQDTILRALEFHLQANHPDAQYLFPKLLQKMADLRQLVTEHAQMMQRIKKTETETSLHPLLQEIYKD
The assay can be described thus: Gal4-hPPARδ chimera transactivation (luciferase) in COS-7 cells. Format: cell-based. To be noted: for EC50 / Emax: COS-7 cells, Gal4-hPPARδ, 24 hours; for EC50: luciferase, read-out: PPARδ EC50; for Emax: relative to maximum activation obtained with GW501516, read-out: PPARδ TOP % (maximum activation). The gist of the method:
(§1)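 COS-7 cells transfected with Gal4-DBD fused to human PPARγ or PPARδ DEF (hinge/ligand-binding) domain plus Gal4(RE)_TkpGL3 luciferase reporter (1:10).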

In assay [1] the test system is PPARδ target genes (PDK4, CPT1b, UCP2) in murine myocytes. The assay can be described thus: Expression of PPARδ target genes in murine myocytes (differentiated C2C12 cells). To be noted: 24 hours, Cpd 7 at 0.1, 1, 10 μM, Cpd 24 at 0.2, 2, 20 μM, normalized to 36B4. Format: cell-based. As for the experimental part:
The PPARδ agonist properties previously measured in vitro were evaluated by measuring, in murine myocytes, the expression of genes involved in lipid and carbohydrate metabolism and energy expenditure (PDK4, CPT1b, UCP2). Regulation of expression of these genes, in this cell type, is a direct consequence of the activation of PPARδ by the compounds according to the invention. The greater the increase in expression of the genes, the more the compound according to the invention is a stimulator of metabolism in muscle cells (Dressel U et al., 2003).
The C2C12 murine cells (from ECACC) are cultivated in DMEM medium (Gibco; 41965-039) supplemented with 1% L-glutamine (Gibco; 25030), 1% penicillin/streptomycin (VWR; BWSTL0022/100) and 10% decomplemented fetal calf serum (FCS. Gibco; 10270-106).
The cells are seeded in 24-well plates at a density of 50×10^3 cells/well. At confluence, the medium is replaced with a differentiation medium (base culture medium supplemented with 2% of horse serum (Gibco; 26050-088)) then culture is continued at 37° C. and 5% CO2 for 7 days in order to permit differentiation of the myoblasts into myocytes.
After 6 days of differentiation, the cells are put in a deprivation medium (base culture medium without serum) for 6 hours. The cells are then treated with the compounds according to the invention in the deprivation medium. The compounds according to the invention were tested at doses of 0.1, 1, 10 μM and 0.2, 2 and 20 μM respectively. The compounds according to the invention were dissolved in dimethylsulfoxide (DMSO, Sigma; D5879). The cells are treated for 24 hours at 37° C., 5% CO2. The effects for the compounds tested were compared with the effect of DMSO alone at a concentration of 0.1%.
These procedures were performed on the cells essentially as described in Example 10 (point c) of the Protocols.
The following primer pairs specific to the genes investigated were used: […]

For the next assay, the target named is T2, hPPARα (Homo sapiens, UniProt Q07869).
T2 construct: corresponding to the DEF domains (structural elements of the promoter of the PPARs: D=hinge, EF=ligand fixation domain and AF2 fixation site); expressed in transfected cells; host or cells: COS-7 (monkey kidney fibroblasts)
T2 sequence (Q07869 239-466 limits assumed): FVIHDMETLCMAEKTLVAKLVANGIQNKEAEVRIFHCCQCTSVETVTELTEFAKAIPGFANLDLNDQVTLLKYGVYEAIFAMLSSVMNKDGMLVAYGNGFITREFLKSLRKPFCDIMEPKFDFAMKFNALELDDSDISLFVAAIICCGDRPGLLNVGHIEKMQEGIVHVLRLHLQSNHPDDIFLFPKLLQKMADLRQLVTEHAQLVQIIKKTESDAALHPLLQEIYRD
The assay can be described thus: Gal4-hPPARα chimera transactivation (luciferase) in COS-7 cells. To be noted: COS-7 cells, Gal4-hPPARα, 24 hours; for EC50: luciferase, read-out: PPARα EC50; for Emax: relative to maximum activation obtained with fenofibric acid, read-out: PPARα TOP % (maximum activation). Format: cell-based. The gist of the method:
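COS-7 cells transiently co-transfected with Gal4 DBD–human PPARα, γ or δ DEF-domain chimeras plus Gal4(RE)_TkpGL3 luciferase reporter (1/10), seeded serum-free, then compound-treated 24 h at 37 °C in 1% Ultroser. Luciferase read after lysis; EC50 and TOP % relative to maximal activation by fenofibric acid (α), rosiglitazone (γ) or GW501516 (δ).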

The next assay deals with T3, hPPARγ (Homo sapiens, UniProt P37231).
T3 construct: corresponding to the DEF domains (structural elements of the promoter of the PPARs: D=hinge, EF=ligand fixation domain and AF2 fixation site); expressed in transfected cells; host or cells: COS-7 (monkey kidney fibroblasts)
T3 sequence (P37231 238-503 limits assumed): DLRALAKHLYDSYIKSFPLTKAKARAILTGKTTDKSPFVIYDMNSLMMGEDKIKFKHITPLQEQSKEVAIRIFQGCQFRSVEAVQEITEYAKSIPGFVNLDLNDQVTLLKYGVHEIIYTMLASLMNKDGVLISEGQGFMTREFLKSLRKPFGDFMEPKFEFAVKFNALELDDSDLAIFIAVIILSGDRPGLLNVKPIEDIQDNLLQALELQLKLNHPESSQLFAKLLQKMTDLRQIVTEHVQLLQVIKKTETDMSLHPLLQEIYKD
The assay can be described thus: Gal4-hPPARγ chimera transactivation (luciferase) in COS-7 cells. The conditions noted are these: 24 hours; for EC50: luciferase, read-out: PPARγ EC50; for Emax: relative to maximum activation obtained with rosiglitazone, read-out: PPARγ TOP % (maximum activation). Format: cell-based. Summed up:
as §1

The test system of assay [2] is 3T3-L1 murine pre-adipocytes. The assay can be described thus: PPARγ functional effect: adipogenesis in 3T3-L1 pre-adipocytes (triglycerides, adiponectin). To be noted: 3T3-L1, 9 days of treatment, 30 nM to 30 μM. Format: cell-based, Mus musculus. As for the experimental part:
The functional effect of activation of PPARγ is evaluated in vitro on a line of pre-adipocyte cells 3T3-L1 (Thompson G M et al., 2004) by measuring the concentration of intracellular triglycerides and the concentration of adiponectin secreted in the culture medium after 9 days of treatment with the compounds according to the invention.
At confluence, the cells were then rinsed with PBS (Phosphate Buffered Saline solution) and the culture medium was replaced with DMEM 4.5 g/L glucose (10% FCS, 1% L-glutamine, 100 units/mL penicillin and 100 μg/mL streptomycin, 0.25 mM) containing a cocktail for initiation of adipocyte differentiation (IBMX (3-isobutyl-1-methylxanthine Sigma; 17018), 0.1 μM dexamethasone (Sigma; D1756) and 0.4 μM of insulin (Sigma; I2643). The cells were also treated with the compounds according to the invention (1 μL of solubilized compound/mL of medium, 200 μL per well).
After 2 days of incubation, the cells were washed with PBS and the differentiation medium was replaced with DMEM 4.5 g/L of glucose supplemented with 10% FCS, 1% L-glutamine, 100 units/mL penicillin and 100 μg/mL streptomycin, 0.4 μM insulin, and the compounds according to the invention for the purpose of completing cellular differentiation and obtaining adipocytes. The medium was changed every 2 days until total differentiation. After culture for 9 days, the treatment was stopped by withdrawing the culture medium, which was stored for assaying secreted adiponectin. The cells were then washed twice with PBS and placed in isopropanol for membrane permeabilization. The content of intracellular triglycerides was evaluated immediately.
Quantification of intracellular triglycerides was performed with the “Triglyceride Enzymatic PAP1000” kit (bioMérieux; 61238) according to the supplier's recommendations. Secreted adiponectin was measured in the culture medium using the “Mouse Adiponectin/Acrp30 Elisa Kit” kit (R&D Systems; DY1119) according to the supplier's recommendations.

As for `COc1nc(-c2ccccc2)ccc1COc1ccc(OC(C)(C)C(=O)O)cc1` [Cpd 1, 2-(4-((2-methoxy-6-phenylpyridin-3-yl)methoxy)phenoxy)-2-methyl-propanoic acid], the “selectivities for the 3 PPAR isoforms” value with 3 PPAR isoforms is reported as “comparable selectivities for the 3 PPAR isoforms”.
`CC(C)(C)Oc1nc(-c2ccccc2)ccc1COc1ccc(OCC(=O)O)cc1` [Cpd 7]: on hPPARδ, the EC50 (as a rule, the concentration needed to bring the measured effect to its halfway point) was determined as 0.55 µM and the Emax worked out at 96.5%. Moreover, the “selectivity among hPPAR isoforms (hPPARδ)” value at hPPARδ (Gal4-hPPAR chimeras, COS-7) is reported as “selective with respect to hPPARδ”. Besides, in assay [1], the “expression of CPT1b” value is “significant effects of stimulating expression”, the “expression of PDK4” value is reported as “significant effects of stimulating expression” and the “expression of UCP2” value is listed as “significant effects of stimulating expression”. Besides, at hPPARα, the EC50 came to 39.6 µM and the Emax turned out to be 28.9%. On hPPARγ, the EC50 was 46.8 µM and the Emax stood at 20.6%.
In the case of `COc1nc(-c2ccc(C(F)(F)F)cc2)ccc1CNc1ccc(CCC(=O)O)cc1` [Cpd 36, 3-(4-(((2-methoxy-6-(4-(trifluoromethyl)phenyl)pyridin-3-yl)methyl)amino)-phenyl)propanoic acid], on hPPARδ, the EC50 worked out at 0.595 µM and the Emax amounted to 93.9%. In addition, in assay [2], the “accumulation of triglycerides in adipocytes” value is given as “dose-dependent stimulation” and the secretion of adiponectin result is reported as “dose-dependent stimulation”. Moreover, at hPPARα, the EC50 stood at 0.304 µM and the Emax was 78%. On hPPARγ, the EC50 amounted to 1.52 µM and the Emax was 123%.
As to `CC#CC(CC(=O)O)c1ccc(OCc2ccc(-c3ccccc3)nc2OC)cc1` (stereo not shown) [Cpd 53, 3-(4-((2-methoxy-6-phenylpyridin-3-yl)methoxy)phenyl)hex-4-ynoic acid], the EC50 at hPPARδ is 10.3 µM; on hPPARα, 5.14 µM; on hPPARγ it was 1.01 µM. For the same compound, the Emax was found to be 9.86% at hPPARδ, 48.6% at hPPARα and 78% on hPPARγ.
Take `CC(C)Oc1nc(-c2ccccc2)ccc1CNc1ccc(CCC(=O)O)cc1` [Cpd 54, 3-(4-(((2-isopropyloxy-6-phenylpyridin-3-yl)methyl)amino)phenyl)propanoic acid]: the results for the EC50 at hPPARδ, on hPPARα and on hPPARγ were 3.2 µM, 7.97 µM and 4.85 µM, respectively. The Emax at hPPARδ turned out to be 92.1%; at hPPARα, 34.5%; at hPPARγ it was 42.2%.

The record behind these values is US8461183B2, “PPAR agonist compounds, preparation and uses” (Genfit, priority 2008, dated 2013).
